According to patent US11591334B2, “Substituted pyrrolizines for the treatment of hepatitis B” (SHANGHAI LONGWOOD BIOPHARMACEUTICALS CO., LTD., priority 2017, dated 2023):
Read-outs that look alike come from different tables or passages of the source.

Tests used:
C150 protein = target: T1, C150 protein (Hepatitis B virus genotype D subtype adw, UniProt P03147, C107A/C48A/C61A/R150C); assay: In vitro anti-HBV nucleocapsid assembly activity test (Experiment 1, protein experiment); type: biochemical
T1 construct: purchased WuXi Apptec Co., Ltd
T1 sequence (P03147 1-150 C48A/C61A/C107A/R150C): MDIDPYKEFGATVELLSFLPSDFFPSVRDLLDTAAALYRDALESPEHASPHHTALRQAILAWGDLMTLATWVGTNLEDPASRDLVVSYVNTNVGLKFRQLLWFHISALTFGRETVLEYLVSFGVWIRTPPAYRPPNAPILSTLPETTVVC
Method: Experiment 1: In Vitro Anti-HBV Nucleocapsid Assembly Activity Test
Main Reagents and Raw Materials:
C150 protein was expressed and purified by WuXi Apptec Co., Ltd.
BoDIPY® FL was purchased from Thermo Fisher Scientific.
Protein Fluorescent Label:
150 μL of 2% w/v skimmed milk was added into each well of 96-well plate, and incubated at room temperature for 2 hours. The skimmed milk was aspirated. The plate was washed with deionized water and dried, and stored at room temperature. C150 protein (3 mg per tube) was desalted with 5 ml Hitrap desalting column. The desalted C150 protein of each tube was added with 50 mM BoDIPY® FL Fluorescent Dye (20 μl), and incubated under 4° C. overnight in the dark after well mixed. Sephadex G-25 gel was used for filtration to remove fluorescent dyes that were not bounded onto C150. The C150 fluorescent labeling efficiency was calculated according to the following equation: [BoDIPY®FL]=A504/78,000 M^−1; [C150Bo]=(A280−[BoDIPY®FL]×1300 M^−1)/60,900 M^−1; Fluorescent Labeling Efficiency=[BoDIPY®FL]/[C150Bo];
The mother liquor of compound was diluted with DMSO to 6 mM, then diluted to 600 μM with 50 mM HEPES, and then further 3-fold diluted with 10 DMSO/50 mM HEPES to 8 concentrations.
C150Bo was diluted to 2 μM with 50 mM HEPES. 37.5 μL of C150Bo and 2.5 μL of compound at each concentration were added into a 96 well plate and well mixed, then incubated at room temperature for 15 minutes. 10 μl of 750 mM NaCl/50 mM HEPES were added into the each reaction well, and the final concentration of NaCl was 150 mM.
Into the control wells in the 0% protein group 10 μL of 50 mM HEPES was added, and the final concentration of NaCl was 0 mM.
Into the control wells in the 100% protein group 10 μL of 5 M/50 mM HEPES was added, and the final concentration of NaCl was 1 M.
The final concentration of DMSO was 0.5%, the maximum final concentration of the compound was 30 μM, and final concentration of C150Bo was 1.5 μM. The mixture was incubated at room temperature for 1 hour. Fluorescence signal was measured (excitation light was 485 nm; emission light was 535 nm).
Data Analysis % protein assembly=[1−(Sample fluorescence value−1 M NaCl fluorescence value)/(0 M NaCl fluorescence value−1 M NaCl fluorescence value)]×100.
IC50 value was calculated by prism software, and the equation was as follows: Y=Bottom+(Top−Bottom)/(1+10^((LogIC50−X)HillSlope));

HBV = assay: Determination of anti-HBV activity in HepG2.2.15 cell (Experiment 2, HBV DNA in supernatant by qPCR); type: cell-based; conditions: Hepatitis B virus
Method: Experiment 2: Determination of Anti-HBV Activity in HepG2.2.15 Cell
(§1) Compound dilution. All the compounds for in vitro anti-HBV activity assay and cytotoxicity assay were 3-fold diluted into 8 concentrations. The final concentration of the tested compound was 30 μM, the final starting concentration of reference compound GLS4 was 1 μM, and the final concentration of DMSO was 0.5%.
HepG2.2.15 cell (4×10^4 cell/well) was inoculated into 96 well plate, and cultured overnight in 37° C., 5% CO2. On the second day, fresh culture medium containing different concentrations of the compound was added into the culture wells. On the fifth day, the old culture solution in the culture well was aspirated and fresh culture medium containing different concentrations of the compound was added.
On the eighth day, the supernatant in the culture well was collected for extraction of HBV DNA, and the content of DNA in the supernatant of HepG2.2.15 HBV was detected by qPCR. After the supernatant was collected, the medium and Cell-titer Glo reagent were added into the culture well, and the chemiluminescence value of each well was measured by microplate reader.
The activity calculation formula was as follows: Y=Bottom+(Top−Bottom)/(1+10^((LogIC50−X)*Hillslope));

[1] = Determination of cytotoxicity (Experiment 3, resazurin assay); type: cell-based; conditions: human
Method: as §1, with “0.5%. Experiment 3: Determination of Cytotoxicity The cytotoxicity of the test compound was tested using HepG2 cells. The cells were incubated for 4 days in the presence of the test compound. Cell activity was assessed using the resazurin assay.” for “0.5%.”

[2] = fluorescently labeled C150 (C150Bo) 1.5 μM, 150 mM NaCl, 1 hour at room temperature, read-out: Experiment 1 Protein experiment IC50
[3] = HepG2.2.15 cells, HBV DNA in supernatant on the eighth day, qPCR, read-out: Experiment 2 Cell experiment EC50
[4] = HepG2 cells, incubated for 4 days, resazurin assay, read-out: Experiment 3 Cytotoxicity CC50
[5] = HepG2.2.15, read-out: Experiment 2 Cell experiment EC50 (nM)

Row | Structure (SMILES) | IC50 (C150 protein; [2]) [nM] | EC50 (HBV; [3]) [nM] | CC50 at 4 days [1, 4] [nM] | IC50 (C150 protein) [nM] | EC50 (HBV; [5]) [nM] | CC50 at 4 days [1] [nM]
1 | Cc1c(S(=O)(=O)NC(C)C(F)(F)F)c2n(c1C(=O)Nc1ccc(F)c(F)c1)CCCC2 (stereo not drawn) [Compound 40e] | 1000 to 100000 | 0.1 to 100 | > 30000 |  |  | 
2 | CC(CO)NC(=O)Nc1c(Cl)c(C(=O)Nc2cc(F)nc(C#N)c2)n2c1CCCC2 (stereo not drawn) [Compound 100p] | 1000 to 100000 | 0.1 to 100 | > 30000 |  |  | 
3 | O=C(Nc1ccc(F)c(F)c1)c1c(Cl)c(S(=O)(=O)NC2C3CCC2CC(O)(CO)C3)c2n1CCC2 (stereo not drawn) [Compound 20kk] | 1000 to 100000 | 0.1 to 100 | > 30000 |  |  | 
4 | Cc1c(S(=O)(=O)NC2(C)COC2)c2n(c1C(=O)Nc1ccnc(C(F)F)c1)CC=C2 [Compound 10aa] | 1000 to 100000 | 100 to 1000 | > 30000 |  |  | 
5 | CC(CO)NS(=O)(=O)c1c(Cl)c(C(=O)Nc2cc(F)nc(C#N)c2)n2c1CCC2 (stereo not drawn) [Compound 20ff] | 1000 to 100000 | 0.1 to 100 | > 30000 |  |  | 
6 | C[C@@H](NS(=O)(=O)c1c(Cl)c(C(=O)Nc2ccc(F)c(F)c2)n2c1CCCCC2)C(F)(F)F [Compound 60a] | > 100000 | 0.1 to 100 | > 30000 |  |  | 
7 | N#Cc1cc(NC(=O)c2c(Cl)c(S(=O)(=O)NC3C4CCC3CC(O)(c3cc(-c5ccccc5)on3)C4)c3n2CCC=C3)cc(F)n1 (stereo not drawn) [Compound 30s] | 1000 to 100000 | 100 to 1000 | > 30000 |  |  | 
8 | C[C@@H](NS(=O)(=O)c1c(Cl)c(C(=O)Nc2ccc(F)c(F)c2)n2c1C=CC2)C(F)(F)F [Compound 10a] | 1000 to 100000 | 0.1 to 100 | > 30000 |  |  | 
9 | CC(NS(=O)(=O)c1c(Cl)c(C(=O)Nc2cc(F)nc(C#N)c2)n2c1CCCC2)C(F)(F)F (stereo not drawn) [Compound 40d] | 1000 to 100000 | 0.1 to 100 | > 30000 |  |  | 
10 | Cc1c(NC(=O)NC2(C)COC2)c2n(c1C(=O)Nc1cc(F)nc(C#N)c1)CCCCC2 [Compound 100r] | 1000 to 100000 | 0.1 to 100 | > 30000 |  |  | 
11 | Cn1c(C(=O)Nc2cc(F)nc(C#N)c2)c2cc[nH]c2c1S(=O)(=O)NC1(C)COC1 [Compound 80f] | 1000 to 100000 | 0.1 to 100 | > 30000 |  |  | 
12 | CC(NS(=O)(=O)c1c(Cl)c(C(=O)Nc2ccc(F)c(F)c2)n2c1CCC2)C(F)(F)F (stereo not drawn) [Compound 20a] | 1000 to 100000 | 0.1 to 100 | > 30000 |  |  | 
13 | C[C@@H](NS(=O)(=O)c1c(Cl)c(C(=O)Nc2ccc(F)c(F)c2)n2c1CCCC2)C(F)(F)F [Compound 40a] | < 1000 | 0.1 to 100 | > 30000 |  |  | 
14 | Cc1c(NS(=O)(=O)NC2(C)COC2)c2n(c1C(=O)Nc1ccc(F)c(F)c1)CCC2 [Compound 90g] | 1000 to 100000 | 0.1 to 100 | > 30000 |  |  | 
15 | CC(NS(=O)(=O)c1c2[nH]ccc2c(C(=O)Nc2cc(F)nc(C#N)c2)n1C)C(F)(F)F (stereo not drawn) [Compound 80d] | 1000 to 100000 | 0.1 to 100 | > 30000 |  |  | 
16 | C[C@@H](NS(=O)(=O)c1c(Cl)c(C(=O)Nc2ccc(F)c(C#N)c2)n2c1C=CCCC2)C(F)(F)F [Compound 50b] |  | 0.1 to 100 | > 30000 | > 100000 |  | 
17 | C[C@@H](NS(=O)(=O)c1c(Cl)c(C(=O)Nc2cc(F)c(F)c(F)c2)n2c1C=CC2)C(F)(F)F [Compound 10b] |  | 0.1 to 100 | > 30000 | 1000 to 100000 |  | 
18 | Cc1c(S(=O)(=O)NC(C)CO)c2n(c1C(=O)Nc1ccnc(C(F)F)c1)CCC2 (stereo not drawn) [Compound 20ii] | 1000 to 100000 | 100 to 1000 | > 30000 |  |  | 

Row | Structure (SMILES) | IC50 (C150 protein; [2]) [nM] | EC50 (HBV; [3]) [nM] | CC50 at 4 days [1, 4] [nM] | IC50 (C150 protein) [nM] | EC50 (HBV; [5]) [nM] | CC50 at 4 days [1] [nM]
19 | Cc1c(S(=O)(=O)N2C3CCC2CC(O)(CO)C3)c2n(c1C(=O)Nc1cc(F)nc(C#N)c1)CC=C2 (stereo not drawn) [Compound 10vv] |  |  |  | 1000 to 100000 | 0.1 to 100 | > 30000
20 | C[C@@H](NS(=O)(=O)c1c(Cl)c(C(=O)Nc2ccc(F)c(C#N)c2)n2c1C=CCC2)C(F)(F)F [Compound 30b] |  | 0.1 to 100 | > 30000 | 1000 to 100000 |  | 
21 | Cc1c(S(=O)(=O)NC(C)C(F)(F)F)c2n(c1C(=O)Nc1ccc(F)c(C#N)c1)CCCC2 (stereo not drawn) [Compound 40f] | 1000 to 100000 | 0.1 to 100 | > 30000 |  |  | 
22 | C[C@@H](NS(=O)(=O)c1c2[nH]ccc2c(C(=O)Nc2ccc(F)c(F)c2)n1C)C(F)(F)F [Compound 80a] | 1000 to 100000 | 100 to 1000 | > 30000 |  |  | 
23 | C[C@@H](NS(=O)(=O)c1c(Cl)c(C(=O)Nc2ccc(F)c(C#N)c2)n2c1C=CC2)C(F)(F)F [Compound 10c] |  | 0.1 to 100 | > 30000 | 1000 to 100000 |  | 
24 | CC(NS(=O)(=O)c1c2ncccc2c(C(=O)Nc2ccc(F)c(C#N)c2)n1C)C(F)(F)F (stereo not drawn) [Compound 70b] | > 100000 | 0.1 to 100 | > 30000 |  |  | 
25 | CC(NS(=O)(=O)Nc1c(Cl)c(C(=O)Nc2ccnc(Cl)c2)n2c1CCC2)C(F)(F)F (stereo not drawn) [Compound 90b] | 1000 to 100000 | 0.1 to 100 | > 30000 |  |  | 
26 | C[C@@H](NS(=O)(=O)c1c(Cl)c(C(=O)Nc2ccc(F)c(C#N)c2)n2c1CCCCC2)C(F)(F)F [Compound 60b] |  | 0.1 to 100 | > 30000 | 1000 to 100000 |  | 
27 | CC(NS(=O)(=O)c1c(Cl)c(C(=O)Nc2cc(F)c(F)c(F)c2)n2c1CCC2)C(F)(F)F (stereo not drawn) [Compound 20b] |  | 0.1 to 100 | > 30000 | < 1000 |  | 
28 | CC(NC(=O)Nc1c(Cl)c(C(=O)Nc2ccnc(Cl)c2)n2c1CCCCC2)C(F)(F)F (stereo not drawn) [Compound 100q] | 1000 to 100000 | 0.1 to 100 | > 30000 |  |  | 
29 | CC(CO)NS(=O)(=O)Nc1c(Cl)c(C(=O)Nc2cc(F)nc(C#N)c2)n2c1CCC2 (stereo not drawn) [Compound 90f] | 1000 to 100000 | 0.1 to 100 | > 30000 |  |  | 
30 | Cc1c(S(=O)(=O)NC(C)CO)c2n(c1C(=O)Nc1cc(F)nc(C#N)c1)CCC2 (stereo not drawn) [Compound 20jj] | 1000 to 100000 | 100 to 1000 | > 30000 |  |  | 
31 | Cc1c(S(=O)(=O)NC2C3CCC2CC(O)(c2cc(-c4ccccc4)on2)C3)c2n(c1C(=O)Nc1cc(F)nc(C#N)c1)CCC=C2 (stereo not drawn) [Compound 30t] | 1000 to 100000 | 100 to 1000 | > 30000 |  |  | 
32 | CC(NC(=O)Nc1c(Cl)c(C(=O)Nc2ccnc(Cl)c2)n2c1CCC2)C(F)(F)F (stereo not drawn) [Compound 100b] |  | 0.1 to 100 | > 30000 | 1000 to 100000 |  | 
33 | O=C(Nc1ccc(F)c(F)c1)c1c(Cl)c(S(=O)(=O)N2C3CCC2CC(O)(c2cc(-c4ccccc4)on2)C3)c2n1CC=C2 (stereo not drawn) [Compound 10ww] |  |  |  | 1000 to 100000 | 0.1 to 100 | > 30000
34 | CC(CO)NS(=O)(=O)c1c(Cl)c(C(=O)Nc2ccc(F)c(C#N)c2)n2c1CCC2 (stereo not drawn) [Compound 20dd] | 1000 to 100000 | 100 to 1000 | > 30000 |  |  | 
35 | CC(NS(=O)(=O)c1c2[nH]ccc2c(C(=O)Nc2ccc(F)c(C#N)c2)n1C)C(F)(F)F (stereo not drawn) [Compound 80b] | 1000 to 100000 | 100 to 1000 | > 30000 |  |  | 
